Assay results published in ChEMBL document CHEMBL3399997 (Bioorg Med Chem Lett, 2015).

What was measured:
Type in all cases: physicochemical
[1] = Antioxidant activity assessed as hydroxyl radical scavenging activity by measuring relative rate constant (kAOx/kST ratio) using DMPO spin trap by ESR spin-trapping method
[2] = Antioxidant activity assessed as alkoxyl radical scavenging activity by measuring relative rate constant (kAOx/kST ratio) using DMPO spin trap by ESR spin-trapping method
[3] = Antioxidant activity assessed as methyl radical scavenging activity by measuring relative rate constant (kAOx/kST ratio) using DMPO spin trap by ESR spin-trapping method
[4] = Antioxidant activity assessed as rate constant for alkoxyl radical scavenging activity using DMPO spin trap by ESR spin-trapping method
[5] = Antioxidant activity assessed as superoxide anion radical scavenging activity by measuring relative rate constant (kAOx/kST ratio) using CYPMPO spin trap by ESR spin-trapping method
[6] = Antioxidant activity assessed as rate constant for hydroxyl radical scavenging activity using DMPO spin trap by ESR spin-trapping method
[7] = Antioxidant activity assessed as singlet oxygen radical scavenging activity by measuring relative rate constant (kAOx/kST ratio) using 4-HO-TEMP spin trap by ESR spin-trapping method
[8] = Antioxidant activity assessed as rate constant for singlet oxygen radical scavenging activity using 4-HO-TEMP spin trap by ESR spin-trapping method
[9] = Antioxidant activity assessed as peroxyl radical scavenging activity by measuring relative rate constant (kAOx/kST ratio) using CYPMPO spin trap by ESR spin-trapping method
[10] = Antioxidant activity assessed as rate constant for methyl radical scavenging activity using DMPO spin trap by ESR spin-trapping method
[11] = Antioxidant activity assessed as rate constant for superoxide anion radical scavenging activity using CYPMPO spin trap by ESR spin-trapping method

NC(Cc1ccc(O)c(O)c1)C(=O)O (racemic)
Ratio [1]: 14.7
Ratio [2]: 28.1
Ratio [3]: 1.82
K [4]: 3.57 ×10⁴ /M/s
Ratio [5]: 687
K [6]: 4.11 ×10¹⁰ /M/s
Ratio [7]: 84.4
K [8]: 7.59 ×10⁶ /M/s
Ratio [9]: 32.5
K [10]: 2.55 ×10⁷ /M/s
K [11]: 3.3 ×10⁴ /M/s

N[C@@H](Cc1ccc(O)c(O)c1)C(=O)O [LEVODOPA]
Ratio [1]: 0.91
Ratio [2]: 27.4
Ratio [3]: 1.85
K [4]: 3.48 ×10⁴ /M/s
Ratio [5]: 4308
K [6]: 2.55 ×10⁹ /M/s
Ratio [7]: 215
K [8]: 1.93 ×10⁷ /M/s
Ratio [9]: 19.3
K [10]: 2.59 ×10⁷ /M/s
K [11]: 2.07 ×10⁵ /M/s
